The IC50 is the point on the concentration scale where inhibition reaches its midpoint.

For 1 compound, IC50 results are on record in patent US5747528A, “Chroman derivatives as anti-oxidants” (Warner-Lambert Company, priority 1997, dated 1998).

The subject of this experiment is VCAM-1. The experiment in a line: VCAM-1 assay: immunoassay of cell-surface VCAM-1 expression on TNF-stimulated human aortic endothelial cells (HAEC). Format: cell-based. To be noted: TNF 250 U/mL, overnight (18 hours). From the text:
CELL CULTURE: Human aortic endothelial cells (CellSystem) Media: 50:50 mix of CS 3.0 (CellSystem) and MCDB-107 (Sigma) 10% fetal bovine serum (FBS) (Hyclone) Tissue culture plates (24 well) (Costar) TNF: recombinant Tumor necrosis factor-alpha (Genzyme)
IMMUNOASSAYS: 10% buffered Formalin (Baxter) Dulbecco's modified eagle medium (DMEM), Phosphate buffered saline (PBS) (Gibco) Bovine serum albumin (BSA) (Sigma) Anti-ICAM-1 antibody (R&D System, BBA#3) Sheep anti-mouse IgG (Cappel, #55558) Horseradish peroxidase (HRP)-KIT (Bio-Rad, #172-1064) Anti-VCAM-1 antibody (R&D System, BBA#6) Goat anti-mouse IgG+IgM, F(ab)2 fragments, biotin conjugated (Jackson Immuno Research Lab, #115-066-068) 125-I-Streptavidin (Amersham, #IM.236)
Human aortic endothelial cells (HAEC) were seeded at 100,000 cells/mL/well in 24 well cluster plates and placed in a 5% CO2 to […] humidified incubator at 37° C. […]
The cells were incubated with anti-VCAM-1 monoclonal antibody (1.25 μg/mL) for 2 hours at 37° C. […] Cells were washed again (4 times) and digested overnight with the addition of 500 μL of 1N NaOH and radioactivity contained in the digests counted. Cell-surface VCAM-1 expression is shown as radioactivity bound to the cell surface under various conditions.

`Cc1c(C)c2c(c(C)c1O)CCC(C)(COc1ccc(NC(=S)NC(c3ccccc3)c3ccccc3)cc1)O2` (stereo not shown) [Example 1, 1-Benzhydryl-3-[4-(6-hydroxy-2,5,7,8-tetramethyl-Chroman-2-ylmethoxy)-phenyl]-thiourea]: the IC50 is 23.1 µM.
